From patent US10744214B2, “Method of diagnosing and/or monitoring therapy of atherosclerosis” (STC.UNM, priority 2015, dated 2020)
“Also recorded” adds a separate entry of the source.

Key:
neutrophils and PBMCs = assay: Radiolabeled DANBIRT uptake in isolated blood components after ozone exposure; type: cell-based, rats; conditions: rat blood collected 24 hours post-exposure, 1 hour incubation
Procedure: • 6 week old ApoE KO C57 black male • SPECT imaging 3 hrs and 24 hrs post tail vein Injection of ˜700 uCi (˜25.9 Mbq) of ^111In-DANBIRT • Autoradiography was performed 24 hrs PI of ^111In-DANBIRT after the last imaging time point, • We focused on 3 areas for our region of interest analysis: Aortic arch, carotids and thymus: normalized to muscle. • Whole blood incubation with ^68Ga-DANBIRT and subsequent neutrophil and PBMC isolation were performed from rat blood from animals exposed to filtered air and ozone. • 2 groups: Filtered air (n=3) and ozone (n=3) • Whole blood was collected 24 hrs post exposure • Whole Blood Separation was performed after incubation with ^68Ga-DANBIRT, obtaining 4 samples: serum, red blood cells, neutrophils and peripheral blood mononucleated cells. Staining was performed for specific morphology interpretation and smear cell line purity assessment. Results
Rats were exposed to either filtered air (FA) or ozone (1.0 ppm) for 4 hours using an OREC silent are discharge ozone generator (Osmonics, Phoenix, Ariz.); ozone concentrations were continuously monitored over the course of 4 hours. Exposures took place in a chamber without bedding to minimize ozone scrubbing and to ensure consistent nasal exposures. Whole blood was collected 24 hours post-exposure. Histopaque two-step gradient (Sigma Aldrich, 10771) neutrophil isolation protocol was performed following manufacturer's methods; modified protocol was included for PBMC isolation. Hetastarch at 5% (B. Braun, L6511) was added to whole blood before running isolation protocols. Cell samples were washed and suspended in 1% Gelatin in PBS at a pH of 7.2. Final volumes of neutrophil and PBMC samples were increased to 1 mL. Final samples were identified as serum, RBC, neutrophils and PBMCs and incubated for 1 hour with [^68Ga] Ga-DANBIRT (specific activity of 625 mCi/pM). […] Cell morphology, differentials and sample purity were assessed using a light microscope at 40× objective (Olympus BX51).

LFA-1 [1] = molecular target: T1, LFA-1 (Mus musculus, UniProt P24063); assay: 24 hr [111In] In-DANBIRT 3D autoradiography of ApoE-/- mice; type: in vivo
T1 construct: presence of inflammatory LFA-1 in immune and cardiovascular tissues; from tissue; host or cells: living or euthanized male ApoE-/- C57BL/6 mice: heart, aortic arch, descending aorta, carotids, thymus
T1 sequence (P24063 24-1162): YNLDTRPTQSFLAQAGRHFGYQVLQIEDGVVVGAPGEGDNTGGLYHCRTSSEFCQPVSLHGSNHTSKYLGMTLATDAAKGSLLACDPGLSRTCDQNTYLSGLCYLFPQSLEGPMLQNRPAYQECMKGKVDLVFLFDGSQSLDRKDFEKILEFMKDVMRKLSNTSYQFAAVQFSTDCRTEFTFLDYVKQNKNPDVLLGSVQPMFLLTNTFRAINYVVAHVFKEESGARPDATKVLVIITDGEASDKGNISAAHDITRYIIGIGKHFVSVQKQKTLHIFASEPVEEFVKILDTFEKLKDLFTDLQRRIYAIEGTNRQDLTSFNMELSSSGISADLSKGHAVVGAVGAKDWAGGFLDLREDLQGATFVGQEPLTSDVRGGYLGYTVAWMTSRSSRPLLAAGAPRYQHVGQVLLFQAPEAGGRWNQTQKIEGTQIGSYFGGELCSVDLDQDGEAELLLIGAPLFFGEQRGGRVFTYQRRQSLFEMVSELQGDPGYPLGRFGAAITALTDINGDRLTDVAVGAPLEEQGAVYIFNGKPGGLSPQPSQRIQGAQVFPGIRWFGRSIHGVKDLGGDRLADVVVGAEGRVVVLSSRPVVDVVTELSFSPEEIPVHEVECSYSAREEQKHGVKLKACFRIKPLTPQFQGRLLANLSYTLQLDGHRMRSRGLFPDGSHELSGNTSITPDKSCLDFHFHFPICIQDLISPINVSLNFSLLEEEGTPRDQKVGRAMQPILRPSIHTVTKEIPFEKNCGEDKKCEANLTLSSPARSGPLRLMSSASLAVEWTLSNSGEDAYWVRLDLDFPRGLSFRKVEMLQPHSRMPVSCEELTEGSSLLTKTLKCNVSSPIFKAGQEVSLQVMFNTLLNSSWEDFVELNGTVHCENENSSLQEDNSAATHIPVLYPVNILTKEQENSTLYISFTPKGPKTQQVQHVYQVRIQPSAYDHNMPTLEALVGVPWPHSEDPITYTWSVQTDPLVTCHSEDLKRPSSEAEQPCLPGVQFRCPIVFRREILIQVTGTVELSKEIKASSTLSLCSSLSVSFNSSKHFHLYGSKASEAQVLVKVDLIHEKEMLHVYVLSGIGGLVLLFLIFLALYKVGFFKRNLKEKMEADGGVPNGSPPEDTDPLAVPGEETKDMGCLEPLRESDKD
T1 sequence (P11835 24-771 partner): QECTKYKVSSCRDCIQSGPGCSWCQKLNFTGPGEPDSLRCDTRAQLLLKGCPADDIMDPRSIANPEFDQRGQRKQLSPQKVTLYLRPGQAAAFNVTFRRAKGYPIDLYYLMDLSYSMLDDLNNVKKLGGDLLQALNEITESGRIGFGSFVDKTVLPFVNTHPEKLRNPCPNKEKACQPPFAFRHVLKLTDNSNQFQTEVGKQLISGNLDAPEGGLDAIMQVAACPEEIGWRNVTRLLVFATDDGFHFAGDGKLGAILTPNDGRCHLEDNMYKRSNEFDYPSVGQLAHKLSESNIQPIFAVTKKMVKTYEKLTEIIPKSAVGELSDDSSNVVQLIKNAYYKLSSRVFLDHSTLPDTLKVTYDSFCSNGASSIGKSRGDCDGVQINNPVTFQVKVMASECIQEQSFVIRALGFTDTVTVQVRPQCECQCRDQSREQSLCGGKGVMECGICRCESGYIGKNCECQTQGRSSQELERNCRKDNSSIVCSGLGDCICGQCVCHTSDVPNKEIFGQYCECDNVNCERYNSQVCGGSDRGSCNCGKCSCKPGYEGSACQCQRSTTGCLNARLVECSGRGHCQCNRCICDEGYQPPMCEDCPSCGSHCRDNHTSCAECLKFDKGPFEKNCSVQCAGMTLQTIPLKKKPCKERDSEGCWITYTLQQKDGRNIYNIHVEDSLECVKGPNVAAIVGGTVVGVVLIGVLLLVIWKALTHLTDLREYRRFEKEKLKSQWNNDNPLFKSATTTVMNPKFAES
Procedure: (§1) Methods: 6 week ApoE […] mice were fed either normal or high fat chow (n=8 per group) for 8 weeks to induce vascular atherosclerotic lesions. SPECT/CT imaging was performed 3-hrs post injection of ˜700 uCi of ^111In-DANBIRT at baseline, 4 weeks and 8 weeks. Whole body Autoradiography was performed 24-hrs post injection after 8-week time point. Image processing and analysis was performed by region of interest (ROI) determination in relationship to voxel and volume, uptake quantification was normalized to muscle uptake. Blood partition assays were conducted to ascertain specific binding components. […]
Mice were euthanized by CO2 method after 8 weeks of dietary assessment. […] Autoradiography and white light files were compiled and analyzed using VivoQuant 2.00 (inviCRO, Boston, Mass.). Determined ROI were drawn using the best quality image phantom from reconstructed CT (FIG. 14, Table 3) for the thymus, muscle, carotids and aortic arch. […]

LFA-1 [2] = molecular target: T1, LFA-1; assay: 3 hr [111In] In-DANBIRT SPECT/CT imaging of ApoE-/- mice; type: in vivo; conditions: HFD fed mice, 3 hr post injection, baseline, 4th and 8th week, normalized to muscle
Procedure: as §1
Animals were imaged at […] following 700 μCi via tail vein injection of [^111In] […] Regions of Interests (ROI) were determined and drawn using the best quality image phantom from reconstructed CT (Table 3) to determine muscle, adipose, heart, aortic arch and descending aorta organs using VivoQuant 2.00 (inviCRO, Boston, Mass.). […] Concentration and sum per volume normalized to muscle was determined to identify accurate measurements and eliminate ROI signal interference from adjacent tissues. […]

LFA-1 receptor [3] = assay: Radioisotopic dilution / competitive leukocyte binding assay; design: species or system Rat; conditions: serum, RBC and PBMC samples
Procedure: (§2) Radioisotopic dilution methods were performed with log-fold serial dilutions at concentrations of 1:1, 1:10, 1:100 and 1:1000 radiolabeled DANBIRT. Rat whole blood was collected and incubated for 10 minutes with [^111In] In-DANBIRT. Leukocyte isolation was performed for neutrophil and PBMC separations post-incubation with radiolabeled DANBIRT (specific activity 625 mCi/pM). Cytospin 2 (Shandon 2,59900002) with double-funnel and white filter (Simport, 930941126) was used for clustered cell differentials identification methods. Cytospin samples were spread in Superfrost Plus slides (VWR, 48311-703) and fixed with […]. Wright-Giemsa horizontal staining protocol was performed according to manufacturer's package insert instructions (Sigma Aldrich, SLBN4704V). Cell morphology, differentials and sample purity were assessed using a light microscope at 40× objective (Olympus BX51).

LFA-1 receptor [4] = molecular target: T2, LFA-1 receptor (Rattus norvegicus, UniProt F1LP44); assay: as above; conditions: compared to neutrophil sample, p<0.05
T2 construct: endogenous in cells; host or cells: neutrophils and PBMCs from whole blood of male Sprague Dawley rats
T2 sequence (F1LP44 24-1161): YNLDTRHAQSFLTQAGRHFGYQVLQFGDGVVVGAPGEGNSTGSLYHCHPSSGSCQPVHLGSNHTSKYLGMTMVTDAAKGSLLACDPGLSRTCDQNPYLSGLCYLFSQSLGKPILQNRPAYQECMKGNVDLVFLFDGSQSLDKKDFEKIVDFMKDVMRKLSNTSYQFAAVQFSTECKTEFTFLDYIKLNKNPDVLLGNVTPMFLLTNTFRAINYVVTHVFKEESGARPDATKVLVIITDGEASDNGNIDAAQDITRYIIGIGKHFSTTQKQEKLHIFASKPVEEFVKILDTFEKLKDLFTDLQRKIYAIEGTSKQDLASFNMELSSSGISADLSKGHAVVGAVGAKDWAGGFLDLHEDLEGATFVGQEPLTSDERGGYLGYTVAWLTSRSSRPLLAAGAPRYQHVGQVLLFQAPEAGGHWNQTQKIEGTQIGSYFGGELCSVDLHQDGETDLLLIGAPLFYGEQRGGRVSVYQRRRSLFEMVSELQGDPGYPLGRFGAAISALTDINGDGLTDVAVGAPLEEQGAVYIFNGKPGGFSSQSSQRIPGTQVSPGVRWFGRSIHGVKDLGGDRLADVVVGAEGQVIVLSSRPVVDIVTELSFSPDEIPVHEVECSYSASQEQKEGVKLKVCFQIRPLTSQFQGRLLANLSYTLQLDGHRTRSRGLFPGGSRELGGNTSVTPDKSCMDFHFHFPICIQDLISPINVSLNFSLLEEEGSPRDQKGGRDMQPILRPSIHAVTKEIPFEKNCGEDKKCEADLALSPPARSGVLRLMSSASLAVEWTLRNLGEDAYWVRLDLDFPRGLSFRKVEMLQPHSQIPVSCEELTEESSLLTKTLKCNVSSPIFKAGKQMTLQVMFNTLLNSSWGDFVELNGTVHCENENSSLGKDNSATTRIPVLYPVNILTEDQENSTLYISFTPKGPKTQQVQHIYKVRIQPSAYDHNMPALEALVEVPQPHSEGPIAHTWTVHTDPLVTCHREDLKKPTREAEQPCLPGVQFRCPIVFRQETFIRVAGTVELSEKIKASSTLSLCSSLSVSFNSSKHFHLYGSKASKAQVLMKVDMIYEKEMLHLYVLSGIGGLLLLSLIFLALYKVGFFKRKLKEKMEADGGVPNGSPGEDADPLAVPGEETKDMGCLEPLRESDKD
Procedure: as §2

[5] = Ex vivo biodistribution of [111In] In-DANBIRT post tail vein injection in ApoE-/- mice
Procedure: • Animals were imaged for ˜75 minutes 3 hrs post tail vein injection of ˜700 uCi (˜25.9 Mbq) of ^111In-DANBIRT • Atorvastatin was administered in the drinking water and PPAR-Delta agonist (GW1516) was incorporated into food pellets by diet manufacturing company. • Organ and serum collection for bio distribution and lipid levels and sub particles size analysis was performed after last imaging time point
Upon completion of 8 weeks on normal or HFD, mice were euthanized 3 hours post-injection of 700 μCi of [^111In] In-DANBIRT via tail vein; organs were harvested for weight assessment and [^111In] In-DANBIRT uptake using an Automatic Wizard 2 Gamma counter (Perkin Elmer). Organs collected were: tail, whole blood, aorta (from aortic arch to thoracic aorta), carotids (front aortic arch to bifurcation), heart, liver, muscle and adipose tissue. Whole blood was collected with direct cardiac puncture of right ventricle using a 24-gauge needle of right ventricle with a heparinized syringe and centrifuged for 15 minutes at 1000 g at 4° C. Serum, erythrocytes (RBC) and leukocytes (WBC) containing isolated samples were collected and measured for [^111In] In-DANBIRT uptake using a gamma counter. Uptake was decay-corrected and percent-injected activity per gram (% IA/gr) was determined for each mouse.

[6] = In vitro stability of radiolabeled DANBIRT in fetal bovine serum and 0.9% saline; type: in vitro ADME; conditions: FBS and 0.9% saline, 4 hours
Procedure: Incubation of [^68Ga] Ga-DANBIRT with Fetal Bovine Serum (FBS) (Atlanta Biologicals, S11150) and 0.9% saline solution was performed in vitro stability analysis. Triplicate samples were drawn from radiolabeled stock and kept incubated at 37° C. until time of analysis. ITLC was performed once at each time point and HPLC assessment was performed in triplicates at baseline, 5, 10, 30, 60, 120 and 240 minutes of incubation. The mean incorporation yield and radiochemical purity were calculated from sample results. Following methods by Poria et al methods were modified for use in a Ultra-Performance Liquid Chromatography (UPLC) using an Acquity UPLC BEH C-18 1.7 μm column (2.1×50 mm) (Waters Corporation, 186002350). UPLC gradient with flow rate is described in FIG. 14.

[7] = 8 weeks of diet, 3 hours post-injection, p<0.05

Row | uptake in the thymus (LFA-1 [1]; Example 1, autoradiography and SPECT/CT analysis) | uptake in heart, aortic arch and descending aorta ROI (SPECT/CT) (LFA-1 [2]; listed as 111In-DANBIRT) | decrease of initial uptake after each log fold dilution concentration (LFA-1 receptor [3]) [%] | saturation in PBMCs at different dilution concentrations (LFA-1 receptor [4]) | uptake in RBC and WBC samples, HFD vs normal diet [5, 7] | % IA/gr of tissue, HFD vs normal diet ([5]; 8 weeks of diet, p<0.05) | uptake in adipose tissue and muscle ([5]; 3 hours post-injection) | uptake in serum compared to other blood components ([5]; 3 hours post-injection of 700 μCi) | uptake in liver compared to other tissues ([5]; 3 hours post-injection of 700 μCi, regardless of dietary treatment) | organ bio distribution uptake in liver, serum, aorta and blood components ([5]; Example 2, 1st cohort) | Structure (SMILES) | uptake in PBMCs post-ozone exposure (neutrophils and PBMCs) | uptake in serum post-ozone exposure (neutrophils and PBMCs) | uptake in neutrophils post 4-hour ozone exposure vs filtered air (neutrophils and PBMCs; p=0.008) | uptake in carotids and thymus, concentration per volume normalized to muscle, HFD vs normal diet (LFA-1 [1]; 24 hr post injection after 8 weeks of diet) | uptake in heart, aortic arch and descending aorta ROI (SPECT/CT) (LFA-1 [2]) | uptake in cardiovascular tissues (heart, aorta, carotids), HFD vs normal diet [5, 7] | stability on incubation [6]
1 |  |  |  |  |  |  |  |  |  |  | C[C@]1(Cc2ccc(Br)cc2)C(=O)N(c2cc(Cl)cc(Cl)c2)C(=O)N1CCCCNC(=O)CN1CCN2CCN3CCN(CC1)CC(=O)[O][68Ga]([O]C(=O)C2)[O]C(=O)C3 [[^68Ga] Ga-DANBIRT] | decreased uptake; also recorded: decrease | decrease | increased uptake |  |  |  | 
2 | Increased uptake | longitudinal increase in uptake | 50 | did not evidence any saturation levels | increased uptake | increase | low uptake | high uptake | high uptake | significant uptake | C[C@]1(Cc2ccc(Br)cc2)C(=O)N(c2cc(Cl)cc(Cl)c2)C(=O)N1CCCCNC(=O)CN1CCN2CCN3CCN(CC1)CC(=O)[O][111In]([O]C(=O)C2)[O]C(=O)C3 [[^111In] In-DANBIRT] |  |  |  | increase; also recorded: Increased uptake | longitudinal increased uptake; also recorded: Increased longitudinal uptake | higher uptake | maintained throughout 4 hours of incubation
